The values that follow come from US8772286B2, “MK2 inhibitors” (Merck Sharp & Dohme B.V., priority 2009, dated 2014).

For series [1], the target named is T1, MK2 enzyme (Homo sapiens, UniProt P49137).
T1 construct: MK2 enzyme (active enzyme (peptide 46-end (Millipore))); purchased Millipore
The series can be described thus: MK2 enzyme activity, IMAP fluorescence polarization assay. In kind it is biochemical. From the text:
In another assay the MK2 kinase activity can be determined by using an IMAP assay (Immobilized Metal Assay for Phosphochemicals—based coupled assay). IMAP is a homogeneous fluorescence polarization (FP) assay based on affinity capture of phosphorylated peptide substrates. IMAP uses fluorescein-labeled peptide substrates that, upon phosphorylation by a protein kinase, bind to so called IMAP nanoparticles, which are derivatized with trivalent metal complexes. […] In such an assay, MK2 phosphorylates a fluorescein-labeled peptide substrate (see example 14).
MK2 enzyme activity is measured using the IMAP (immobilized metal ion affinity-based fluorescence polarization) assay as outlined below.
The enzyme is diluted to 100 U/mL the day before use in KR buffer (10 mM Tris-HCl, 10 mM MgCl2, 0.01% Tween-20, 0.05% NaN3, 2 mM DTT, pH 7.2) and stored overnight at −20° C.
The dilutions in DMSO are then diluted 50-fold in KR-buffer of which 5 μl is used in the assay, leading to a final compound concentration range in the assay from 10 μM to 0.316 nM.
After 60 min incubation at room temperature in the dark the FP signal is read. Fluorescence at 535 nm is measured using parallel and perpendicular filters to determine differences in rotation due to binding of the phosphorylated substrate peptide to the beads. Values are calculated as percentage of the difference in readout (ΔmPi) of the controls with and without ATP. EC50 values are determined by curve fitting of the experimental results using Activity Base.
(Fluorescence polarisation rises when a labelled molecule tumbles more slowly, as on binding a larger partner.)

Series [2] in a line: Solubility determination of MK2 inhibitors (kinetic aqueous solubility, UPLC). In kind it is physicochemical. The following applies: aqueous buffer (system solution from pION inc.), 22 °C, pH 7.4, aqueous buffer, kinetic from dmso stock. As for the experimental part: The solubility can be determined using the Automated Kinetic Aqueous Solubility (AKASol) method, which is an HPLC-UV based method. The method is derived from the classical saturated shake-flask solubility method which has been adapted to the 96-well microtitre plate format, allowing the use of DMSO stock solutions. The solubility is determined by measuring the amount of compound in a saturated aqueous solution, quantified by an external calibration curve of the compound dissolved in DMSO. The solubility (mg/L) is measured at pH 7.4, at room temperature and the final concentration of DMSO in the sample solution is 1%.
The samples were prepared from 10 mM DMSO stock solutions. For each compound under investigation, a volume (9 μL) of the DMSO stock solution is transferred from the DMSO stock solution into 891 μL of buffer solution (system solution from pION inc.) in a 96 deep well plate, which equates to approximately 1% DMSO, using the Packard Multiprobe II robot liquid handling system. The pH of the buffer is manually adjusted at pH 7.4 by adding NaOH. This procedure is done in duplicate for each sample. After shaking for 24 h on a vortex mixer (Heidolph, Titramax 101) at 450 rpm and at room temperature (21-23° C.), 300 uL of the incubated sample is transferred from the deep well plate to a filter plate (PVDF, 0.45 um) on a vacuum manifold. To the filtrate (150 uL) 1-propanol (50 uL) is added to suppress precipitation and this solution is then analysed by UPLC. The solubility is determined using the calibration line previously prepared.
Preparation of the Standards and Built up of a Calibration Line
The calibration line is built with different concentrations of the test compound (standards), prepared from the same 10 mM DMSO stock solution. A volume (7 uL) from the same DMSO stock solution was diluted with DMSO (273 uL) leading to a solution with concentration of 0.25 mM. From this solution, three different injection volumes (0.2, 1, 1.8 uL) were injected on UPLC. The respective peak areas are plotted against amount of compound to build up the calibration line. The calibration line is used to determine the amount of dissolved compound in each sample, selecting the injection that gave peak areas closest to the peak area range of the calibration standards.

Setting [3] is: MK2 IMAP assay, 1 μM ATP, 30 min pre-incubation, 2 h room temperature, read-out: pEC50 value (converted).
Setting [4] is: pH 7.4, room temperature, about 1% DMSO, 24 h shaking, read-out: solubility.
Where [5] appears, read: Table 1, comparison compound of Formula (XV) without spiro ring, MK2 IMAP assay, read-out: pEC50, Formula (XV) (converted).
[6] abbreviates: Table 1, comparison compound of Formula (XV) without spiro ring, pH 7.4, read-out: Solubility pH 7.4 (mg/L), Formula (XV).
[7] abbreviates: Table 2, comparison compound of Formula (XVI), spiro ring without amine, MK2 IMAP assay, read-out: pEC50, Formula (XVI) (converted).

Each structure is given as a SMILES string. Values after ≈ are worked out from the molar mass of the structure shown. Where two headings read alike, the source gives them in different places.

T1 sequence (P49137 46-400 limits assumed): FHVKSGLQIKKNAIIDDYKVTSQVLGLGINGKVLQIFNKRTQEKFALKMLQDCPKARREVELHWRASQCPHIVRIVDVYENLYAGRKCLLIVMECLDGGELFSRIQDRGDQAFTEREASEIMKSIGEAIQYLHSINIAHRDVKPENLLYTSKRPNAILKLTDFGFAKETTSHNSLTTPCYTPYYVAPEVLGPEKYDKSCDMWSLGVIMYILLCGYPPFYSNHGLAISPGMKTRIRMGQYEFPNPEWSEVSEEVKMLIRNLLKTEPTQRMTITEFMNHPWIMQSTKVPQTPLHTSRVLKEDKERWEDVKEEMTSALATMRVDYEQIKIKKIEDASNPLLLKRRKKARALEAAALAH

For the compound `O=C1NCC2(CCNC2)c2[nH]c(-c3ccnc(-c4cccc(F)c4)n3)cc21` (stereo not drawn) [6—4, 2′-(2-(3-fluorophenyl)pyrimidin-4-yl)-5′,6′-dihydrospiro[pyrrolidine-3,7′-pyrrolo[3,2-c]pyridin]-4′(1′H)-one], the EC50 in series [1] (setting [3]) was 0.00316 to 0.0316 µM. Further, the solubility at 24 h in series [2] (setting [4]) lay within 20 to 50 mg/L (≈ 55 to 138 µM). For `O=C1NCC2(CCNCC2)c2[nH]c(-c3ccnc(-c4cc5ccccc5o4)n3)cc21` [Example 1—1, 2′(2-(benzofuran-2-yl)pyrimidin-4-yl)-5′,6′-dihydrospiro[piperidine-4,7′-pyrrolo[3,2-c]pyridin]-4′(1′H)-one] the same measures were 0.00316 to 0.0316 µM and 20 to 50 mg/L (≈ 50.1 to 125 µM). As for `O=C1NCC2(CCCNC2)c2[nH]c(-c3ccnc(-c4ccc5c(c4)OCO5)n3)cc21` (stereo not drawn) [5—2, 2′-(2-(benzo[d][1,3]dioxol-5-yl)pyrimidin-4-yl)-5′,6′-dihydrospiro[piperidine-3,7′-pyrrolo[3,2-c]pyridin]-4′(1′H)-one], in series [1] (setting [3]), the EC50 was 0.00316 to 0.0316 µM. In addition, in series [2] (setting [4]), the solubility at 24 h is no less than 50 mg/L.

For `O=C1NCCc2[nH]c(-c3ccnc(-c4ccc5c(c4)OCO5)n3)cc21` [16_5 Formula (XV)], in series [1] (setting [5]), the EC50 was 0.126 µM. Also, in series [2] (setting [6]), the solubility at 24 h was determined as 5 mg/L. On to `O=C1NCC2(CCNCC2)c2[nH]c(-c3ccnc(-c4cc5ccccc5s4)n3)cc21` [1—28, 2′-(2-(benzo[b]thiophen-2-yl)pyrimidin-4-yl)-5′,6′-dihydrospiro[piperidine-4,7′-pyrrolo[3,2-c]pyridin]-4′(1′H)-one], for which, in series [1] (setting [3]), the EC50 is 0.00316 to 0.0316 µM. Moreover, in series [2] (setting [4]), the solubility at 24 h is no less than 50 mg/L. On the same counts, the results for `CNC(=O)c1ccc(-c2ncc(F)c(-c3cc4c([nH]3)C3(CCNCC3)CNC4=O)n2)cc1` [4—4, 4-(5-fluoro-4-(4′-oxo-1′,4′,5′,6′-tetrahydrospiro[piperidine-4,7′-pyrrolo[3,2-c]pyridine]-2′-yl)pyrimidin-2-yl)-N-methylbenzamide] are 0.00316 to 0.0316 µM and 20 to 50 mg/L (≈ 46 to 115 µM).

As for `COc1cc(-c2nccc(-c3cc4c([nH]3)C3(CCNCC3)CNC4=O)n2)ccc1O` [1—20, 2′-(2-(4-hydroxy-3-methoxyphenyl)pyrimidin-4-yl)-5′,6′-dihydrospiro[piperidine-4,7′-pyrrolo[3,2-c]pyridin]-4′(1′H)-one], the EC50 in series [1] (setting [3]) is 0.0316 to 0.316 µM. Moreover, the solubility at 24 h in series [2] (setting [4]) was no less than 50 mg/L. In series [1], `O=C1NCCc2[nH]c(-c3ccnc(-c4cc5ccccc5o4)c3)cc21` [16_7 Formula (XV)] had an EC50 of 0.126 µM. The solubility at 24 h in series [2] (setting [6]) was 2 mg/L. Turning to `O=C1NCC2(CCNCC2)c2[nH]c(-c3ccnc(-c4cnc5ccccc5c4)n3)cc21` [1—21, 2′-(2-(quinolin-3-yl)pyrimidin-4-yl)-5′,6′-dihydrospiro[piperidine-4,7′-pyrrolo[3,2-c]pyridin]-4′(1′H)-one], the EC50 in series [1] (setting [3]) was 0.00316 to 0.0316 µM. The solubility at 24 h in series [2] (setting [4]) was in the range of 20 to 50 mg/L (≈ 48.7 to 122 µM). For `O=C1NCC2(CCNCC2)c2[nH]c(-c3ccnc(-c4cc5ccccc5o4)c3)cc21` [Example 8—1, 2′-(2-(benzofuran-2-yl)pyridin-4-yl)-5′,6′-dihydrospiro[piperidine-4,7′-pyrrolo[3,2-c]pyridin]-4′(1′H)-one], the EC50 in series [1] (setting [3]) was 0.00316 to 0.0316 µM. For the same compound, in series [2] (setting [4]), the solubility at 24 h is no less than 50 mg/L. For `O=C1NCC2(CCNCC2)c2[nH]c(-c3nc(-c4cnc5ccccc5c4)ncc3F)cc21` [4—3, 2′-(5-fluoro-2-(quinolin-3-yl)pyrimidin-4-yl)-5′,6′-dihydrospiro[piperidine-4,7′-pyrrolo[3,2-c]pyridin]-4′(1′H)-one] the same measures were no more than 0.00316 µM and no less than 50 mg/L. For the compound `O=C1NCC2(CNCCO2)c2[nH]c(-c3ccnc(-c4cc5ccccc5o4)n3)cc21` (stereo not drawn) [7—1, 2′-(2-(benzofuran-2-yl)pyrimidin-4-yl)-5′,6′-dihydrospiro[morpholine-2,7′-pyrrolo[3,2-c]pyridin]-4′(1′H)-one], the EC50 in series [1] (setting [3]) was 0.0316 to 0.316 µM. The solubility at 24 h in series [2] (setting [4]) was no less than 50 mg/L. For the compound `O=C1NCC2(CCNCC2)c2[nH]c(-c3ccnc(-c4cccc(F)c4)n3)cc21` [16_3 Formula (I)], the EC50 in series [1] (Table 1, compound of Formula (I) with spiro ring, MK2 IMAP assay, read-out: pEC50, Formula (I) (converted)) was 0.00794 µM. In series [2] (Table 1, compound of Formula (I) with spiro ring, pH 7.4, read-out: Solubility pH 7.4 (mg/L), Formula (I)), the solubility at 24 h came to 36 mg/L. Turning to `O=C1NCCc2[nH]c(-c3ccnc(-c4ccccc4F)n3)cc21` [16_4 Formula (XV)], the EC50 in series [1] (setting [5]) is 1 µM. The solubility at 24 h in series [2] (setting [6]) amounted to 44 mg/L. For `O=C(Nc1nccc(-c2cc3c([nH]2)C2(CCCNC2)CNC3=O)n1)c1cccc(OC(F)(F)F)c1` (stereo not drawn) [13—2, N-(4-(4′-oxo-1′,4′,5′,6′-tetrahydrospiro[piperidine-3,7′-pyrrolo[3,2-c]pyridine]-2′-yl)pyrimidin-2-yl)-3-(trifluoromethoxy)benzamide], in series [1] (setting [3]), the EC50 is 0.0316 to 0.316 µM. The solubility at 24 h in series [2] (setting [4]) was in the range of 20 to 50 mg/L (≈ 41.1 to 103 µM). On the same counts, the results for `NCC(=O)N1CCC2(CC1)CNC(=O)c1cc(-c3ccnc(-c4cc5ccccc5o4)n3)[nH]c12` [10—1, 1-(2-aminoacetyl)-2′-(2-(benzofuran-2-yl)pyrimidin-4-yl)-5′,6′-dihydrospiro[piperidine-4,7′-pyrrolo[3,2-c]pyridin]-4′(1′H)-one] are 0.0316 to 0.316 µM and no less than 50 mg/L.

`O=C1NCC2(CCNCC2)c2[nH]c(-c3nc(-c4ccc5c(c4)OCO5)ncc3F)cc21` [4—2, 2′-(2-(benzo[d][1,3]dioxol-5-yl)-5-fluoropyrimidin-4-yl)-5′,6′-dihydrospiro[piperidine-4,7′-pyrrolo[3,2-c]pyridin]-4′(1′H)-one]: the EC50 in series [1] (setting [3]) was 0.00316 to 0.0316 µM. In addition, the solubility at 24 h in series [2] (setting [4]) is 20 to 50 mg/L (≈ 47.5 to 119 µM). On to `O=C1NCC2(CCNCC2)c2[nH]c(-c3ccnc(-c4ccccc4F)n3)cc21` [1—4, 2′-(2-(2-fluorophenyl)pyrimidin-4-yl)-5′,6′-dihydrospiro[piperidine-4,7′-pyrrolo[3,2-c]pyridin]-4′(1′H)-one], for which the EC50 in series [1] (setting [3]) is 0.00316 to 0.0316 µM. Further, in series [2] (setting [4]), the solubility at 24 h fell in the range of 20 to 50 mg/L (≈ 53 to 132 µM). Regarding `O=C1NCC2(CCNCC2)c2[nH]c(-c3ccnc(-c4ccc5c(c4)OCO5)c3)cc21` [8—3, 2′-(2-(benzo[d][1,3]dioxol-5-yl)pyridin-4-yl)-5′,6′-dihydrospiro[piperidine-4,7′-pyrrolo[3,2-c]pyridin]-4′(1′H)-one], the EC50 in series [1] (setting [3]) is no more than 0.00316 µM. The solubility at 24 h in series [2] (setting [4]) was no less than 50 mg/L.

For `O=C1NCC2(CCCC2)c2[nH]c(-c3ccnc(-c4cccc(F)c4)n3)cc21` [17_4 Formula (XVI)], the EC50 in series [1] (setting [7]) was 0.316 µM.

Take `O=C1NCCc2[nH]c(-c3ccnc(-c4cnc5ccccc5c4)c3)cc21` [16_1 Formula (XV)]: in series [2] (setting [6]), the solubility at 24 h worked out at 2 mg/L. Consider `O=C1NCC2(CCCC2)c2[nH]c(-c3ccnc(-c4cnc5ccccc5c4)n3)cc21` [17_3 Formula (XVI)], for which the EC50 in series [1] (setting [7]) is 0.251 µM. Turning to `O=C1NCCc2[nH]c(-c3ccnc(-c4cnc5ccccc5c4)n3)cc21` [16_2 Formula (XV)], the EC50 in series [1] was 0.01 µM.
